Reference: article PMC12382740, “In Vitro and In Vivo Characterization of Novel Cathelicidin-Based Peptides with Antimicrobial Activity Against Pseudomonas aeruginosa” (Antibiotics, 2025)
Converted amounts (≈) assume the structure as drawn. Read-outs that look alike come from different tables or passages of the source. Square brackets hold non-standard residues; d marks the D form. Ends that are not written are not given here. Peptide text beside a SMILES is read from it. * marks the point of attachment. Gu = N-terminal guanidylation, N=C(N)*

Key:
[1] = In vivo toxicity study, topical; design: species or system BALB/C mice; details: for mice final weight (median ± SD): after 7 days of observation after the treatment; for dermal responses and body weight loss / indicative signs of acute toxicity: healthy female BALB/C mice; for dermal responses and body weight loss: during the application; for indicative signs of acute toxicity: topical, efficacy dosage, 7 days observation
Procedure: Immunocompetent female BALB/C mice weighing 20 g (7–9 weeks old) were used (Charles River laboratories, St-Germain-Nuelles, France). Animals were murine pathogen-free and were assessed for genetic authenticity. The study followed the Guide for the Care and Use of Laboratory Animals. The experiments followed the 2010/63/EU directive on the protection of animals used for scientific research. Experiments were approved by the Committee on the Ethics of Animal Experiments of the Virgen del Rocío University Hospital and the Andalusian Ministry of Agricultura, Pesca, Agua y Desarrollo Rural, Junta de Andalucía, Sevilla, Spain (11-09-15-322).
CAP-18 and D-CAP-18 peptides were evaluated in five healthy female BALB/C mice at the dosage and regimen schedule to be used in the efficacy studies. The following indicative signs of acute toxicity were assessed during seven days: reduced water (dehydration)/food intake, isolation, self-mutilation, tremors/spasms, dyspnea, physical activity (increased/reduced), chromo-dacryorrhea, dermal responses, including erythema/oedema/redness/discoloration/necrosis), muscle stiffness, piloerection, teeth grinding, and weight loss.

human erythrocytes = experiment: Hemolysis assay; assay type: cell-based; details: red cells of human, 4 h
Procedure: Commercially available human blood (IWB1K2E10ML, Innovative Research Inc., Novi, MI, USA) was used to produce a 50% haematocrit solution by mixing at 1:1 with PBS 1× (P5493, 1 L, Sigma, St. Louis, MO, USA). Three consecutive PBS 1× washes plus centrifugation at 2600 rpm for 10 min steps were performed. Finally, a 2% erythrocyte solution was prepared in PBS 1× and chilled on ice until used. Polypropylene plates were filled with 50 µL PBS 1× per well for the samples and 50 µL 2% Triton X-100 (TX-100, 9002-93-1, 100 mL, Sigma, St. Louis, MO, USA) for the hemolysis controls. A solution at 4× final concentration of the assay of each peptide was prepared in PBS and 50 µL were added to the first column of each plate, followed by serial dilutions in the microplate. Then, 50 µL of the 2% erythrocyte solution was added to each plate. […] controls consisted in a 1:1 mix of PBS 1× and erythrocytes at 2%. Plates were incubated at 37 °C for 4 h and then centrifuged at 1500 rpm for 5 min. Eighty µL were extracted from the supernatant of each well carefully and transferred to a polystyrene flat bottom plate for reading and read at 450 nm in an Epoch microplate spectrophotometer (Epoch™, BioTek, Winooski, VT, USA).
The therapeutic index is a widely accepted parameter to represent the specificity of antimicrobial peptides for prokaryotic versus eukaryotic cells. It is calculated by the ratio of HC50 (hemolytic activity) and MIC (antimicrobial activity); thus, larger values of therapeutic index indicate greater specificity for prokaryotic cells.

A549 cells = assay type: cell-based, human; details: 24 h
Procedure: (§1) Cell viability assays were performed against HeLa and A549 cells. Cells were seeded in Corning 96-well microplates at 2 × 10^3 cells/well and 5 × 10^3 cells/well and incubated for 24 h at 37 °C. Then, cells were treated with peptides dissolved in Dulbecco’s Modified Eagle’s Medium for 24 h; peptide concentration range 0.1–100 µM. The peptide solution was then removed, and fresh medium was added to the cells. Finally, 50 µL of activated-XTT solution was added and incubated for 4 h at 37 °C. A PowerWave X reader (BioTek, Winooski, VT, USA) was used to measure absorbance at 450 nm. Cell viability was calculated through the ratio of the absorbance of peptide-treated cells over the absorbance of untreated cells. Triplicates were run for each experiment.

HeLa cells [2] = assay type: cell-based, human; details: 24 h
Procedure: as §1

[3] = test system: P. aeruginosa strain panel; assay type: cell-based, Pseudomonas aeruginosa; details: strain panel
Procedure: (§2) The antimicrobial activity of the peptides was tested against a collection of P. aeruginosa, selected by their resistance or susceptibility to colistin and/or classified as MDR strains. The origin of the strains was either clinical, relevant to the current clinical situation, or commercial strains belonging to the American Type Culture Collection (ATCC, Manassas, VA, USA), which complemented the collection for comparison and control. For the initial activity screening of the 17 peptides, we tested them against P. aeruginosa ATCC strains 1211007 and 1211101. Both strains are multidrug-resistant; however, the key difference is that strain 1211007 is susceptible to colistin, whereas strain 1211101 is resistant to colistin.
(§3) Minimum Inhibitory Concentration (MIC) of the antimicrobial agents against bacterial strains was obtained through broth microdilution assays following a protocol based on the Clinical & Laboratory Standards Institute’s guidelines. Modifications regarding microplate material and broth were included when testing the peptides’ activity and are detailed below. Colistin MICs were obtained following recommendations of the joint CLSI-EUCAST Polymyxin Breakpoints Working Group using Cation Adjusted Mueller-Hinton Broth (90922, 500 g Sigma-Aldrich®, St. Louis, MO, USA), and strains Escherichia coli 13846 (mcr-1 positive) and P. aeruginosa ATCC 27853 were used as quality controls in all assays. Bacteria were cultured in Columbia Agar plates (Columbia Agar with 5% Sheep Blood 90 mm Stacker plates, Becton Dickinson, Franklin Lakes, NJ, USA) and incubated overnight at 37 °C. Polypropylene round-bottomed 96-well plates (-96-well Polypropylene Storage Microplates, 267334, Thermo Fischer Scientific, Waltham, MA, USA) were used to prevent peptide binding to plate walls. AST broth (BD Phoenix™ AST broth, 8 mL, 246003, Becton Dickinson, Franklin Lakes, NJ, USA) was used when testing the peptides’ activity. […] Three biological and technical replicates were performed per strain.

[4] = test system: P. aeruginosa Strain 121007; assay type: cell-based, Pseudomonas aeruginosa
Procedure: as §2, §3

[5] = test system: P. aeruginosa Strain ATCC 121110; assay type: cell-based, Pseudomonas aeruginosa
Procedure: as §2, §3

[6] = test system: Colistin-Resistant P. aeruginosa; assay type: cell-based, Pseudomonas aeruginosa; details: Colistin-Resistant
Procedure: as §2, §3

[7] = test system: Colistin Susceptible P. aeruginosa; assay type: cell-based, Pseudomonas aeruginosa; details: Colistin Susceptible
Procedure: as §2, §3

HeLa cells [8] = test system: HeLa cells; design: method as in PMID 26114809; details: read-out: IC50 against HeLa cells; cited from earlier work
erythrocytes = test system: erythrocytes; design: method as in PMID 26114809; details: at 64 mg/L ref 58; cited from earlier work
[9] = Strain 121007, value in brackets
[10] = Strain ATCC 121110, value in brackets

| Molecule | MIC ([4]; Strain 121007) [µg/mL] | MIC [4, 9] [µM] | MIC [5, 10] [µM] | MIC ([5]; ATCC 121110) [µg/mL] | IC50 (HeLa cells [8]) [µM] | also measured |
| --- | --- | --- | --- | --- | --- | --- |
| CC[C@@H](C)[C@@H](NC(=O)[C@@H](CCCCN)NC(=O)[C@@H](CCCCN)NC(=O)[C@@H](CC(C)C)NC(=O)[C@@H](CCCCN)NC(=O)[C@@H](CCC(=O)O)NC(=O)[C@@H](CCCCN)NC(=O)[C@H](NC(=O)[C@@H](CCCCN)NC(=O)[C@@H](CC(N)=O)NC(=O)[C@@H](CCCNC(=N)N)NC(=O)[C@@H](Cc1ccccc1)NC(=O)[C@@H](CCCCN)NC(=O)[C@@H](CCCNC(=N)N)NC(=O)[C@@H](CC(C)C)NC(=O)[C@@H](CCCNC(=N)N)NC(=O)[C@@H](CCCCN)NC(=O)[C@@H](CCCNC(=N)N)NC(=O)[C@@H](CC(C)C)NC(=O)CN)[C@H](C)CC)C(=O)NCC(=O)N[C@H](CCC(N)=O)C(=O)N[C@H](CCCCN)C(=O)N[C@@H](C(=O)N[C@H](CCC(N)=O)C(=O)NCC(=O)N[C@H](CC(C)C)C(=O)N[C@H](CC(C)C)C(=O)N1CCC[C@@H]1C(=O)N[C@H](CCCCN)C(=O)N[C@H](CC(C)C)C(=O)N[C@H](C)C(=O)N1CCC[C@@H]1C(=O)N[C@H](CCCNC(=N)N)C(=O)N[C@@H](C(=O)N[C@H](CC(=O)O)C(=O)N[C@H](Cc1ccc(O)cc1)C(=O)O)[C@H](C)O)[C@H](C)CC [D-CAP-18, Glrkrlrkfrnkikeklkkigqkiqgllpklaprtdy] (H-G[dL][dR][dK][dR][dL][dR][dK][dF][dR][dN][dK][dI][dK][dE][dK][dL][dK][dK][dI]G[dQ][dK][dI][dQ]G[dL][dL][dP][dK][dL][dA][dP][dR][dT][dD][dY]-OH) | 2 |  |  |  |  | mice final weight (median ± SD) [1]: 18.9 ± 0.30 grams; dermal responses and body weight loss [1]: no dermal responses, including erythema/oedema, nor body weight loss were observed; indicative signs of acute toxicity [1]: None of the 11 indicative signs of acute toxicity were observed; IC50 (human erythrocytes): 62 µM; IC50 (A549 cells): 2.09 µM; IC50 (HeLa cells [2]): 2.11 µM; MIC50 [3]: 1 µg/mL (≈ 0.226 µM); MIC90 [3]: 2 µg/mL (≈ 0.451 µM) |
| CC[C@@H](C)[C@@H](NC(=O)CNC(=O)[C@@H](CCC(N)=O)NC(=O)[C@@H](CCCCN)NC(=O)[C@H](NC(=O)[C@@H](CCC(N)=O)NC(=O)CNC(=O)[C@@H](CC(C)C)NC(=O)[C@@H](CC(C)C)NC(=O)[C@H]1CCCN1C(=O)[C@@H](CCCCN)NC(=O)[C@H](N)CC(C)C)[C@H](C)CC)C(=O)N[C@H](CCCCN)C(=O)N[C@H](CCCCN)C(=O)N[C@H](CC(C)C)C(=O)N[C@H](CCCCN)C(=O)N[C@H](CCC(=O)O)C(=O)N[C@H](CCCCN)C(=O)N[C@@H](C(=O)N[C@H](CCCCN)C(=O)N[C@H](CC(N)=O)C(=O)N[C@H](CCCNC(=N)N)C(=O)N[C@H](Cc1ccccc1)C(=O)N[C@H](CCCCN)C(=O)N[C@H](CCCNC(=N)N)C(=O)N[C@H](CC(C)C)C(=O)N[C@H](CCCNC(=N)N)C(=O)N[C@H](CCCCN)C(=O)N[C@H](CCCNC(=N)N)C(=O)N[C@H](CC(C)C)C(=O)NCC(=O)O)[C@H](C)CC [R-CAP-18_31, Lkpllgqikqgikklkekiknrfkrlrkrlg] (H-[dL][dK][dP][dL][dL]G[dQ][dI][dK][dQ]G[dI][dK][dK][dL][dK][dE][dK][dI][dK][dN][dR][dF][dK][dR][dL][dR][dK][dR][dL]G-OH) | 0.5 | 0.1 | 1.1 |  |  | MIC ([5]; Strain ATCC 121110): 4 µg/mL |
| GLRKRLRKFRNKIKEKLKKIGQKIQGLLPKLAPRTDY [CAP-18] |  |  |  | < 0.125 |  | mice final weight (median ± SD) [1]: 19.1 ± 0.55 grams; dermal responses and body weight loss [1]: no dermal responses, including erythema/oedema, nor body weight loss were observed; indicative signs of acute toxicity [1]: None of the 11 indicative signs of acute toxicity were observed; IC50 (human erythrocytes): 35.7 µM; IC50 (A549 cells): 0.87 µM; IC50 (HeLa cells [2]): 9.12 µM; MIC [6]: 4 µg/mL; MIC50 [3]: 0.5 µg/mL; MIC90 [3]: 4 µg/mL; MIC [7]: 8 µg/mL |
| Gu-INLKALAALAKKIL-NH2 (SMILES CC[C@H](C)[C@H](NC(=N)N)C(=O)N[C@@H](CC(N)=O)C(=O)N[C@@H](CC(C)C)C(=O)N[C@@H](CCCCN)C(=O)N[C@@H](C)C(=O)N[C@@H](CC(C)C)C(=O)N[C@@H](C)C(=O)N[C@@H](C)C(=O)N[C@@H](CC(C)C)C(=O)N[C@@H](C)C(=O)N[C@@H](CCCCN)C(=O)N[C@@H](CCCCN)C(=O)N[C@H](C(=O)N[C@@H](CC(C)C)C(N)=O)[C@@H](C)CC) [guanidylated mastoparan analog] |  |  |  |  | 13 |  |
| H-FRNKIKEKLKKIGQKIQG-OH [CAP-18_18] | > 64 | > 30 | > 30 | > 64 |  |  |
| H-FRNKIKEKLKKIGQKIQGLLPKL-OH [CAP-18_23] | > 64 | > 24 | > 12 | > 32 |  |  |
| H-GLRKRLRKFRNKIKEKLKKIG-OH [CAP-18_21] | 32 | 12 | 12 | 32 |  |  |
| H-IKEKLKKIGQKIQG-OH [CAP-18_14] | > 64 |  | > 40 | > 64 |  |  |
| H-IKEKLKKIGQKIQGLLPKL-OH [CAP-18_19] | > 64 | > 29 | > 29 | > 64 |  |  |
| H-INLKALAALAKKIL-CH2CH2NH2 |  |  |  |  | 5 |  |
| H-inlkalaalakkil-NH2 |  |  |  |  | 10 |  |
| mastoparan |  |  |  |  | 32 | hemolysis (erythrocytes): 6.6% |
